Results on eleven compounds are retold here after patent US7794835B2, “Fixing solution, capsule structure, fixing method, fixing device and image forming apparatus” (Ricoh Company, Ltd., priority 2004, dated 2010).

Experiment in one series: not given
The settings on record: acute oral toxicity; cited from earlier work.
Take `CCOCCOC(=O)CCC(=O)OCCOCC` [diethoxy ethyl succinate]: the median lethal dose (LD50) is 5000 mg/kg.
Regarding `CCCCCCCCCCCCCCCC(=O)OCC(C)C` [isobutyl palmitate, reference compound], the LD50 is 8000 mg/kg.
Take `CCCCCCCCCCCC(=O)OCCCCCC` [hexyl laureate]: the LD50 was 8000 mg/kg.
In the case of `CCO` [ethanol], the LD50 was 20000 mg/kg.
As for `CCCCCC` [n-hexane], the LD50 was 28700 mg/kg.
As to `CCCCCCCCCCCC` [n-dodecane], the LD50 is 20000 mg/kg.
With `[Cl-].[Na+]` [salt, reference compound], the 50% lethal dose (LD50) was 3000 mg/kg.
Take `CCCCCCCC(=O)OC` [methylcaprylate, reference compound]: the LD50 was 3000 mg/kg.
With `CCCCCCCCCCCCCCCC(=O)OC(C)C` [isopropyl palmitate, reference compound], the LD50 was 8000 mg/kg.
Take `CCCCCCCCCCCCCC(=O)OC(C)C` [isopropylmyristate]: the LD50 was 8000 mg/kg.

Still in this series, the particulars now being: acute oral toxicity; listed as dimethyl silicone oil; cited from earlier work.
dimethylsiloxane: the LD50 result is “not less than 15 g/kg”.

The nature of a further series: acute oral toxicity test LD50 (50 percent lethal dose). The series is classed as in vivo, rats or guinea pigs. The settings on record: worked out from LD50 in oral administration. From the text:
A fixing solution according to the present invention includes aliphatic ester, held in a soluble state with respect to a solvent and having solubility or a swelling property with respect to a resin included in a toner. Thereby, a fixing solution, from which generation of odor is reduced, and by which a not-yet-fixed toner can be rapidly fixed, can be obtained. The aliphatic ester is applied as a softener softening a toner by dissolving or swelling the resin included in the toner. ‘Held in a soluble state’ means as being held in a size on the order of a molecule size on the order of […]. The aliphatic ester preferably has acute oral toxicity test LD50 larger than 3 g/kg in a viewpoint of a safety of humans.
For the first problem, LD50 is applied as a safety index, and a fixing solution was produced in such a manner that each of a solvent and a solute has LD50 not less than 3.0 g/kg. LD50 is a toxicity index of American Industrial Hygiene Association, and means a 50 percent lethal dose. This corresponds to an amount such that, 50% of the number of individuals are dead when a certain amount of test solute or a sample to test is given to rats or guinea pigs. […] Since this means that a 50% lethal dose for a weight of individuals of 1 kg is not less than 15 g, a presumable lethal dose of silicone oil for a human of 65 kg is not less than […] accordingly. […]
On to dimethylsiloxane, for which the “presumable lethal dose for a human of 65 kg” value is on record as “not less than 945 g”.

As a reminder, the LD50 is the dose expected to kill half of the subjects tested.
